Where “and” joins values, the source holds several entries; their conditions need not be identical. Equal values may be shown once.
Tests used:
[1] = target: T1, human NOX3 (hNOX3) (Homo sapiens, UniProt Q9HBY0); assay: NOX3 inhibition assay (L-012), HEK293 cells stably overexpressing human NOX3; assay type: cell-based; settings: HEK293-hNOX3, PMA stimulated
T1 construct: pLV-CMV-hNOX3-puro (NM_015718.3); host or cells: HEK293 (CLS GmbH), lentiviral transduction
T1 sequence (Q9HBY0 1-568): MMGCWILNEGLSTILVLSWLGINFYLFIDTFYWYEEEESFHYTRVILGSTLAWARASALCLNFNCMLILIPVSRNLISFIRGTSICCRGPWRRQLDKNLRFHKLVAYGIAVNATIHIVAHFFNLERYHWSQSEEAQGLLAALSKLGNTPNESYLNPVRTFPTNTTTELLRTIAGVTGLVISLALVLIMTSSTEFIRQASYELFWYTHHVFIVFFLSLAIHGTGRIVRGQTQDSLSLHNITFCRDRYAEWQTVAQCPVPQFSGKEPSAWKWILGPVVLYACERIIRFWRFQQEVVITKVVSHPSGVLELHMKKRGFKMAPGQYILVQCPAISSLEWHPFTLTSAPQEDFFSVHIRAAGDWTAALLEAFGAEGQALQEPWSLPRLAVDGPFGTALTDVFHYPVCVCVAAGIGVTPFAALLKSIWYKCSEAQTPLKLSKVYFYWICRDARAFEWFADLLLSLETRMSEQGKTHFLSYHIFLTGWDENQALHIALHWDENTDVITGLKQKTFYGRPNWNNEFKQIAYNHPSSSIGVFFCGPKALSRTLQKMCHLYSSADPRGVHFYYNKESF
T1 sequence (P13498 2-195 partner limits assumed): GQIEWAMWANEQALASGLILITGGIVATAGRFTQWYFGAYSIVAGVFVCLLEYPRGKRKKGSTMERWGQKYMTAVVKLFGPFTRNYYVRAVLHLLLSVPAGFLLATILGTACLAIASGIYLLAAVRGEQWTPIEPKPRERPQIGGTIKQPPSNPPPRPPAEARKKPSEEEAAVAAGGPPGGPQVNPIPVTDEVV
Text: Plasmids are Purchased from Vectorbuilder. • for HEK-hNOX1 all necessary subunits are cloned accordingly: • pLV-CMV-hNOX1-puro (NM_007052.5) • pLV-CMV-hNOXO1-blas (NM_172168.3) • pLV-CMV-hp22phox-hygro (NM_000101.4) • pLV-CMV-hNOXA1-neo (NM_006647.2) • for HEK-hNOX3 • pLV-CMV-hNOX3-puro (NM_015718.3)
3rd generation lentiviral particles are produced in HEK293 suspension cells by transient transfection of three helper and expression plasmids. Crucial lentivirus supernatants are harvested, clarified by filtration and concentrated by precipitation. Lentivirus titers are determined in transducing units in (TU/mL) by transduction of HT1080 cells and colony forming assay. Parental HEK293 cells, purchased from CLS GmbH, are transduced with replication-incompetent 3rd generation lentiviral particles (MOI 2) and expanded for at least 2 weeks before cryopreservation of tested lots. During cultivation, medium is changed three times per week and cells are sub-cultured at least once per week. Selection antibiotics are added according to the plasmids (1 μg/ml puromycin, 1.5 μg/ml blasticidin, 200 μg/ml G418 and 100 μg/ml hygromycin).
Evaluation of the NOX4 inhibitors on NOX3 activity is assessed in HEK293 cells stably overexpressing human NOX3 (hNOX3).
Cells are seeded in 384 well plates for 2 days. […] Cells are then stimulated with PMA at 0.1 μM to induce NOX3-dependent ROS production. […] Luminescence is measured with an PHERAstar multimode reader.

[2] = system: human hepatocytes; assay: Evaluation of hepatocyte clearance (metabolic stability); assay type: in vitro ADME; settings: 1 μM test compound, 5% human serum, Table 3
How it was run: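 Cryopreserved human hepatocytes (typically 1 Mio cells/mL) in supplemented DMEM with 5% human serum incubated with 1 μM compound (0.05% DMSO) at 37° C, sampled to 6 hours. Parent decline by HPLC-MS/MS; CLint = Dose/AUC, scaled to in vivo blood CL via well-stirred model.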

[3] = target: T2, human NOX4 (hNOX4) (Homo sapiens, UniProt Q9NPH5); assay: cell-based
T2 sequence (Q9NPH5 1-578): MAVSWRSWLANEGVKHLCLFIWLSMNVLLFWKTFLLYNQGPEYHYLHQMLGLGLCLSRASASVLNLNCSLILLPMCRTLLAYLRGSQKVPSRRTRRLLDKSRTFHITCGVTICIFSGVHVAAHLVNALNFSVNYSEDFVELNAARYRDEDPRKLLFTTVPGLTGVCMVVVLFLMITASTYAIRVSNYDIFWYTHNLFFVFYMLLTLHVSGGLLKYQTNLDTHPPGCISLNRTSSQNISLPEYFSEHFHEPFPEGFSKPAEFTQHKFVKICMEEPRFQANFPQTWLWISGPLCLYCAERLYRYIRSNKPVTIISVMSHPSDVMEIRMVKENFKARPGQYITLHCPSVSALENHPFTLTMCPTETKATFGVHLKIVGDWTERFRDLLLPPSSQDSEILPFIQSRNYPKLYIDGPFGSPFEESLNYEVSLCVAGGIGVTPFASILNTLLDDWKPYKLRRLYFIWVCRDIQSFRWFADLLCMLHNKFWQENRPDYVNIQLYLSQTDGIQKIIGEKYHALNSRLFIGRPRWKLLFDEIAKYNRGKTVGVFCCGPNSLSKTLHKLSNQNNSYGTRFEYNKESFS
T2 sequence (P13498 2-195 partner limits assumed): T1 sequence (P13498 2-195 partner limits assumed)
Description: The synthetic gene phNOX4_DNA3_1_Zeo (Accession: AAF68973) is assembled from synthetic oligonucleotides and/or PCR products. The fragment is cloned into pcDNA3.1_Zeo_A011 using NheI and XhoI cloning sites. The plasmid DNA is purified from transformed bacteria and its concentration is determined by UV spectroscopy. The final construct is verified by sequencing. The plasmid is transfected via electroporation (Amaxa electroporation device) in combination with Nucleofector Kit V. Selection of NOX4 overexpressing genes is achieved using selection antibiotic Zeocin.
The inhibitory activity of the example compounds of the invention is determined using the following procedure:
Cells are cultured in the Dulbecco's Modified Eagle Medium (DMEM) media containing 4.5 g/L glucose supplemented with 10% fetal calf serum and 250 μg/ml Zeocin in an incubator at 37° C. with 5% CO2. For the assay, cells are seeded in 384 well plates.
After incubation Lumigen HyPerBlu™ is added and cells are incubated for additional 30 min at 24° C. in a humidified incubator. Next, luminescence is measured using an Envision Multimode Plate reader to determine levels of produced H2O2 in the wells.

IC50 [1]	Qh [%] [2]	IC50 [3]	SMILES
> 100 µM	40%	0.137 µM	O=c1c2scnc2nc(SCc2ccc(C(F)(F)F)cc2)n1-c1ccc(O)nn1 [Example 66]
> 100 µM	37%	0.063 µM	Cc1cc(F)cc(C)c1CSc1nc2ncsc2c(=O)n1-c1cnc(O)c(F)c1 [Example 43]
46.4 µM	14%	0.062 µM	O=c1c2scnc2nc(SCc2ccc(C(F)(F)F)cc2F)n1-c1cnc(O)c(F)c1 [Example 42]
> 100 µM	56%	0.024 µM	O=c1c2scnc2nc(SCc2ccc(Cl)cc2)n1-c1cc(F)c(O)c(F)c1 [Example 5]
16.3 µM	79%	0.042 µM	O=c1c2scnc2nc(SCc2c(F)cc(F)cc2F)n1-c1ccc(O)c(F)c1 [Example 11]
2.7 µM	42%	0.043 µM	O=c1c2scnc2nc(SCc2c(F)cc(F)cc2F)n1-c1cc(F)c(O)c(F)c1 [Example 8]
61.4 µM	70%	0.314 µM	O=c1c2scnc2nc(SCc2c(F)cc(F)cc2F)n1-c1ccc(O)cc1Cl [Example 17]
4.1 µM	41%	0.091 µM	Cc1cc(F)cc(C)c1CSc1nc2ncsc2c(=O)n1-c1cc(F)c(O)c(F)c1 [Example 4]
> 100 µM	29%	0.136 µM	O=c1c2scnc2nc(SCc2c(F)cc(F)cc2F)n1-c1ccc(O)nc1 [Example 28]
> 100 µM	7%	0.124 µM	O=c1c2scnc2nc(SCc2ccc(C(F)(F)F)cc2F)n1-c1cnc(O)nc1 [Example 57]
> 100 µM	54%	0.15 µM and 0.145 µM	Cc1cc(F)ccc1CSc1nc2ncsc2c(=O)n1-c1ccc(O)nc1 [Example 29]
> 100 µM	45%	0.069 µM	O=c1c2scnc2nc(SCc2ccc(Cl)cc2F)n1-c1ccc(O)nc1 [Example 22, 5-((4-Chloro-2-fluorobenzyl)thio)-6-(6-hydroxypyridin-3-yl)thiazolo[4,5-d]pyrimidin-7(6H)-one]
> 100 µM	11%	0.048 µM	O=c1c2scnc2nc(SCc2ccc(F)cc2F)n1-c1cnc(O)c(F)c1 [Example 38]
> 100 µM	<4%	0.206 µM	O=c1c2scnc2nc(SCc2c(F)cc(F)cc2F)n1-c1cnc(O)nc1 [Example 59]
0.4 µM	48%	0.117 µM	N#Cc1cc(-n2c(SCc3c(F)cc(F)cc3F)nc3ncsc3c2=O)ccc1O [Example 18]
6.4 µM	10%	0.051 µM	O=c1c2scnc2nc(SCc2c(F)cc(F)cc2F)n1-c1cc(F)c(O)nc1F [Example 51, 6-(2,5-Difluoro-6-hydroxypyridin-3-yl)-5-((2,4,6-trifluorobenzyl)thio)thiazolo[4,5-d]-pyrimidin-7(6H)-one]
> 100 µM	19%	0.14 µM	Cc1cc(F)ccc1CSc1nc2ncsc2c(=O)n1-c1cnc(O)nc1 [Example 58]
3.7 µM	65%	0.029 µM	Cc1cc(F)ccc1CSc1nc2ncsc2c(=O)n1-c1cc(F)c(O)c(F)c1 [Example 9]
83.4 µM	50%	0.137 µM	O=c1c2scnc2nc(SCc2ccc(C(F)(F)F)cc2F)n1-c1ccc(O)nn1 [Example 65]
64.7 µM	19%	0.047 µM	O=c1c2scnc2nc(SCc2c(F)cc(F)cc2F)n1-c1ccc(O)nc1F [Example 50, 6-(2-Fluoro-6-hydroxypyridin-3-yl)-5-((2,4,6-trifluorobenzyl)thio)thiazolo[4,5-d]-pyrimidin-7(6H)-one]
> 100 µM	55%	0.096 µM	Cc1cc(Cl)ccc1CSc1nc2ncsc2c(=O)n1-c1ccc(O)nc1 [Example 23]
